These results are taken from PMC9616412, “Nebulized fusion inhibitory peptide protects cynomolgus macaques from measles virus infection” (Nature Communications, 2022).

Data set [1] can be described thus: Biochemical parameters in plasma after nebulization. The data set is classed as in vivo, cynomolgus macaques. Conditions: noninfected animals, days 1, 2, 3, 6, 28 after nebulization. How it is done:
(§1) Biochemical parameters in the plasma and cellular composition of the blood were evaluated immediately before treatment and 1, 2, 3, 6, and 28 days after nebulization of either saline or HRC4 peptide in non-infected and MeV-infected NHP, to search for early and late toxic effects of the aerosol delivery (Fig. 4). […] In both control and peptide group, few animals experienced transient increase of creatine kinase above physiological values[40] (Fig. 4a), which can be linked to intramuscular anesthesia, as described previously.

A short description of data set [2]: Haematological parameters after nebulization. The data set is classed as in vivo, cynomolgus macaques. Conditions: noninfected animals, days 1, 2, 3, 6, 28 after nebulization. On the procedure:
as §1

The nature of data set [3]: ELISA of HRC4 concentration in serum and urine.
For data set [4], the system named is MeV IC323-eGFP. The experiment in a line: ELISA of total MeV-specific immunoglobulin in serum. To be noted: HRC4-treated animals P1 and P3.
Protocol: Sera of MeV-infected NHPs were tested for the presence of anti-MeV antibodies by ELISA. Briefly, MeV nucleoprotein, produced as described previously[71] was coated onto 96-well ELISA plates overnight (1 μg /well). Plates were blocked using a mix of PBS 1X-Milk 5% for 30 min at room temperature. Serial dilutions (1:50 and then 1:3 serial dilutions until 1:2952450) were done in PBS 1X-Tween 0.05%-Milk and incubated 2 h at RT. […] Optical density was measured at 450 and 620 nm using an ELISA reader (Thermo Fisher) and the absorbance difference between 450 nm and 650 nm was determined and corrected for blank readings. The serum sample was considered positive when its value was higher than three times the average value obtained with the negative sera of the same dilution and the results were expressed as reciprocal value of the last serum dilution giving the measurable values.
In data set [5] the test system is MeV IC323-eGFP. As to the kind of experiment: Class-unswitched and switched memory B cells by flow cytometry. To be noted: HRC4-treated animals P1 and P3.
Protocol: Whole blood was collected on EDTA, then transferred into BD vacutainer CPT tubes (after removal of anticoagulant solution from CPT tubes) and spun at 2500 g for 20 min. The PBMCs were collected and one-tenth were used to isolate RNA. […] Cells were acquired on a MACSQuant®10 flow cytometer (Miltenyi) and analyzed by FlowJo10.8 (Becton Dickinson) and Kaluza 2.1 (Beckman Coulter).
A further data set deals with MeV IC323. As to the kind of experiment: Lethal intranasal MeV infection of CD150xIFNα/βR KO mice, survival. To be noted: p < 0.0001, Mantel-Cox test.
Data set [6] concerns MeV IC323-eGFP. As to the kind of experiment: Serial passaging of MeV in presence of peptide and sequencing for escape variants. Conditions: 1 µM peptide, Vero-hSLAM cells, 8 passages, sequencing of viral RNA.

In the case of `CC[C@H](C)[C@H](NC(=O)[C@H](C)NC(=O)[C@H](CC(N)=O)NC(=O)CNC(=O)[C@H](CC(C)C)NC(=O)[C@H](CC(N)=O)NC(=O)[C@@H](NC(=O)CNC(=O)[C@@H](NC(=O)[C@H](CC(=O)O)NC(=O)[C@H](CC(C)C)NC(=O)[C@H](CCCNC(=N)N)NC(=O)[C@H](CCC(=O)O)NC(=O)[C@H](CC(C)C)NC(=O)[C@H](CO)NC(=O)[C@@H](NC(=O)[C@@H]1CCCN1C(=O)[C@@H]1CCCN1)[C@@H](C)CC)C(C)C)[C@@H](C)O)C(=O)N[C@@H](C)C(=O)N[C@@H](CCCCN)C(=O)N[C@@H](CC(C)C)C(=O)N[C@@H](CCC(=O)O)C(=O)N[C@@H](CC(=O)O)C(=O)N[C@@H](C)C(=O)N[C@@H](CCCCN)C(=O)N[C@@H](CCC(=O)O)C(=O)N[C@@H](CC(C)C)C(=O)N[C@@H](CC(C)C)C(=O)N[C@@H](CCC(=O)O)C(=O)N[C@@H](CO)C(=O)N[C@@H](CO)C(=O)N[C@@H](CC(=O)O)C(=O)N[C@@H](CCC(N)=O)C(=O)N[C@H](C(=O)N[C@@H](CC(C)C)C(=O)N[C@@H](CCCNC(=N)N)C(=O)NCC(=O)N[C@@H](CO)C(=O)NCC(=O)N[C@@H](CO)C(=O)NCC(=O)N[C@@H](CSC1CC(=O)N(CCCC(=O)NCCOCCOCCOCCOCCC(=O)NCCN(CCNC(=O)CCOCCOCCOCCOCCNC(=O)CCCN2C(=O)CC(SC[C@H](NC(=O)CNC(=O)[C@H](CO)NC(=O)CNC(=O)[C@H](CO)NC(=O)CNC(=O)[C@H](CCCNC(=N)N)NC(=O)[C@H](CC(C)C)NC(=O)[C@@H](NC(=O)[C@H](CCC(N)=O)NC(=O)[C@H](CC(=O)O)NC(=O)[C@H](CO)NC(=O)[C@H](CO)NC(=O)[C@H](CCC(=O)O)NC(=O)[C@H](CC(C)C)NC(=O)[C@H](CC(C)C)NC(=O)[C@H](CCC(=O)O)NC(=O)[C@H](CCCCN)NC(=O)[C@H](C)NC(=O)[C@H](CC(=O)O)NC(=O)[C@H](CCC(=O)O)NC(=O)[C@H](CC(C)C)NC(=O)[C@H](CCCCN)NC(=O)[C@H](C)NC(=O)[C@@H](NC(=O)[C@H](C)NC(=O)[C@H](CC(N)=O)NC(=O)CNC(=O)[C@H](CC(C)C)NC(=O)[C@H](CC(N)=O)NC(=O)[C@@H](NC(=O)CNC(=O)[C@@H](NC(=O)[C@H](CC(=O)O)NC(=O)[C@H](CC(C)C)NC(=O)[C@H](CCCNC(=N)N)NC(=O)[C@H](CCC(=O)O)NC(=O)[C@H](CC(C)C)NC(=O)[C@H](CO)NC(=O)[C@@H](NC(=O)[C@@H]3CCCN3C(=O)[C@@H]3CCCN3)[C@@H](C)CC)C(C)C)[C@@H](C)O)[C@@H](C)CC)[C@@H](C)CC)C(=O)O)C2=O)CCO[C@H]2CC[C@@]3(C)C(=CC[C@H]4[C@@H]5CC[C@H]([C@H](C)CCCC(C)C)[C@@]5(C)CC[C@@H]43)C2)C1=O)C(=O)O)[C@@H](C)CC` (some centres unmarked) [HRC4], in data set [1], the “Biochemical parameters in plasma” value was “within the physiological levels”. Besides, the Hematological parameters entry in data set [2] is recorded as “within the physiological levels”. The compound further displayed a level at time molar at 96 h in data set [3] (cynomolgus monkey, serum, inhaled or intranasal, 4 mg/kg, [HRC4] nM, serum of NHP, 96 hours post nebulization, single values) of 0.285 nM. In addition, the HRC4 in urine result in data set [3] (nebulized macaques) is reported as “absent”. Besides, the “[HRC4]” value is 0 nM in data set [3] (serum of NHP, 0 hours post nebulization, single values) and 0 nM in data set [3] (serum of NHP, 168 hours post nebulization, single values). In the data set with MeV IC323-eGFP [4], the Seroconversion result was “absence of seroconversion”. In addition, the “Memory B cell populations” value with MeV IC323-eGFP [5] is “remained stable without any noticeable increase”. In addition, the Survival rate entry with MeV IC323 (HRC4 1 mg/kg intranasal six hours before infection with 10^4 PFU) and with MeV IC323 (HRC4 1 mg/kg intranasal twenty-four hours before infection with 10^4 PFU) was “significantly higher survival rate” in each case. Also, the “Mutations in MeV F after serial passage in presence of peptide” value in the data set on MeV IC323-eGFP [6] is “no mutations were identified”.
